Data set [1] concerns sPLA2 enzymes found in human tears. The data set is described as follows: Susceptibility of phospholipid in a silicone hydrogel contact lens body to digestion by tear sPLA2 enzymes. Conditions: phospholipid present in a silicone hydrogel contact lens body. It counts as biochemical. The text has this: To achieve these and other advantages, and in accordance with the purposes of the present invention, as embodied and broadly described herein, the present invention, in part relates to a hydrogel contact lens comprising a polymeric lens body loaded with 2-oleoyl phospholipid. The 2-oleoyl phospholipid is advantageously susceptible to digestion by secretory phospholipase 2-acylhydrolase (sPLA2) enzymes found in human tears, especially group IIA secretory phospholipase 2-acylhydrolase (sPLA2-IIA). The 2-oleoyl phospholipid present in the contact lens body is advantageously susceptible to digestion by sPLA2 enzymes found in human tears, especially sPLA2-IIA when the 2-oleoyl phospholipid is present in the polymeric lens body of a silicone hydrogel contact lens, such as a stenfilcon A contact lens. […] For the avoidance of doubt, while the determination of whether a 2-oleoyl phospholipid is susceptible to digestion by sPLA2 enzymes may be carried out by loading the 2-oleoyl phospholipid to a stenfilcon A lens, the contact lens of the invention, including contact lenses comprising 2-oleoyl phospholipid that have been determined to be susceptible to digestion by sPLA2 enzymes, need not be stenfilcon A lenses and may be silicone hydrogel lenses of any formulation. […]

In data set [2] the target is T1, recombinant human PLA2G2A (sPLA2-IIA) (Homo sapiens, UniProt P14555).
T1 construct: purchased Creative BioMart PLA2G2A-669H
T1 sequence (P14555 21-144): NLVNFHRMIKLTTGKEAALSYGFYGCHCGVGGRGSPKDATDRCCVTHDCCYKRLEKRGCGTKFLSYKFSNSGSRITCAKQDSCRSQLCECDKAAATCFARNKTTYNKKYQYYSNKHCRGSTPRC
The data set is described as follows: sPLA2 digestion assay: oleic acid release from stenfilcon A lenses loaded with phospholipid, in ATF with and without sPLA2 (LCMS). Format: biochemical. Conditions: 35±2° C., 4 hours; for Oleic acid peak area in ATF (without sPLA2): 4 mm piece of phospholipid-loaded stenfilcon A lens in 100 μL ATF; for Ratio of OA peak area in ATF with and without sPLA2: stenfilcon A lens pieces, 50 ppm sPLA2. The protocol:
The phospholipids shown in Table 1 were obtain from Avanti Polar Lipids. 3 mg/ml loading solutions of the phospholipids shown in Table 1 were prepared by adding 2.4 mL ethanol to 9 mg of phospholipid, sonicating (up to 15 minutes) then adding 0.6 mL DI water and sonicating again (up to 15 minutes) to dissolve the phospholipid.
Hydrated contact lenses made from stenfilcon A were washed three times in 3 mL purified water for 30 minutes each time. Each washed lens was placed in 3 mL of a phospholipid loading solution and incubated at room temperature with gentle shaking at 75 rpm for 3 hours. The loaded lenses were then rinsed and hydrated in several exchanges of DI water. The lenses were packaged in a buffered saline contact lens packaging solution and autoclaved.
An artificial tear fluid (ATF) was prepared by adding the first three ingredients listed in Table 2 to a clean class vial and then adding 30 mL of the fourth ingredient.
After autoclave each lens was removed from its package and place in a 6 mL glass vial containing 5 mL of the ATF at room temperature on a shaker at 125 rpm overnight to elute any free oleic acid that may be present in the lens.
Each lens was rinsed in a 6 ml glass vial containing a fresh aliquot of 5 mL ATF for 30 minutes prior to running the digestion assay.
A 50 ppm solution of sPLA2 was prepared in ATF by adding 200 μl ATF to a tube containing 10 μg recombinant human PLA2G2A (Creative BioMart, Cat. No. PLA2G2A-669H). The solution is referred to as ATF+sPLA2. Two 4 mm pieces were cut from each lens. One piece of each lens was placed in a tube with 100 μL ATF and the other piece was placed in a tube containing 100 μL ATF+sPLA2. The tubes were incubated at 35±2° C. for 4 hours with no shaking.
50 μl of the release media from each lens at T=4 hr was transferred to HPLC vials and 500 μl isopropanol (IPA) was added and mixed well. T=0 hr HPLC vials were also prepared (50 μl ATF+500 μl IPA). All vials were sonicated for 15 minutes and centrifuged. The supernatant was removed for LCMS injection.
The supernatants were injected on an LCMS instrument equipped with an ACQUITY UPLC BEH C18 […], 2.1 mm×15 cm column and running a mobile phase gradient from 65% A to 90% B at a flow rate of 0.35 mL/min with A=40% acetonitrile in water with 10 mM ammonium acetate and 0.2% (v/v) ammonium hydroxide, and B=10% acetonitrile in IPA with 10 mM ammonium acetate and 0.2% (v/v) ammonium hydroxide. The mass spec detector is run at negative electrospray mode. The peaks for oleic acid (OA) in the supernatants were measured (m/z trace=281.24). The ratio of OA peak area in ATF with and without sPLA2 was calculated.

Data set [3] can be described thus: Amount of DOPG loaded in stenfilcon A lens, by IPA extraction and LCMS. It counts as physicochemical. Conditions: about 90 minutes. The protocol:
1,2-Dioleoyl-sn-glycero-3-phospho-rac-(1-glycerol) sodium salt (DOPG) from Sigma-Aldrich was dissolved into a 50% by volume ethanol (EtOH) 50% by volume deionized water solution and sonicated until the DOPG was fully dissolved to provide DOPG loading solutions ranging in concentration from 1 mg/ml to 10 mg/ml.
Silicone hydrogel contact lenses were prepared by curing the formulation for stenfilcon A in polypropylene contact lens molds. The cured stenfilcon A was removed from the molds, and each lens was extracted in EtOH to remove unreacted monomer. The lenses were then placed in the DOPG loading solutions for about 90 minutes and then hydrated in several exchanges of DI water. The lenses were packaged in plastic blisters with about 1.2 ml of a packaging solution comprising phosphate buffered saline (PBS) and autoclaved.
The amount of DOPG in each lens was determined by extracting the lens with isopropanol (IPA) and measuring DOPG in the extract by LCMS. Briefly, each lens was removed from its blister pack, lightly blotted to remove excess packaging solution, and placed in a 20 mL glass vial containing 10 mL 100% IPA. The vials were placed on a bench top shaker at 300 rpm overnight (˜16 hours) at room temperature. For stenfilcon A, a single […] extraction step is sufficient to extract substantially all the DOPG from the lense. Silicone hydrogel lens materials that are more hydrophobic may require a second overnight extraction in order to extract all the DOPG, in which case the IPA from the first extraction step is removed and replaced with 3 mL fresh IPA and shaken overnight at 300 rpm at room temperature. The amount of DOPG in the IPA extract from each lens is determined by LCMS compared to a DOPG standard solution.

Consider `CCCCCCCCCCCCCC(=O)OC[C@H](COP(=O)([O-])OCC[N+](C)(C)C)OC(=O)CCCCCCCCCCCCC` [DMPC, 1,2-dimyristoyl-sn-glycero-3-phosphocholine], for which the “Susceptibility to digestion by sPLA2 enzymes found in human tears” value in data set [1] is listed as “not be susceptible to digestion by sPLA2 enzymes”.
On to `CCCCCCCC/C=C\CCCCCCCC(=O)OC[C@H](COP(=O)([O-])OCC[N+](C)(C)C)OC(=O)CCCCCCC/C=C\CCCCCCCC` [DOPC, 1,2-dioleoyl-sn-glycero-3-phosphocholine, reference compound], for which, in data set [2] (LCMS m/z 281.24), the “Oleic acid peak area in ATF (without sPLA2)” value was 102. Moreover, the “Ratio of OA peak area in ATF with and without sPLA2” value in data set [2] came to 1.2.
For `CCCCCCCC/C=C\CCCCCCCC(=O)OC[C@H](COP(=O)(O)OCCN)OC(=O)CCCCCCC/C=C\CCCCCCCC` [DOPE, 1,2-dioleoyl-sn-glycero-3-phosphoethanolamine] the same measures were 463 and 4.6.
As to `CCCCCCCC/C=C\CCCCCCCC(=O)OC[C@H](COP(=O)(O)OC[C@H](N)C(=O)O)OC(=O)CCCCCCC/C=C\CCCCCCCC` [DOPS, 1,2-dioleoyl-sn-glycero-3-phospho-L-serine], the “Oleic acid peak area in ATF (without sPLA2)” value in data set [2] (LCMS m/z 281.24) came to 88.
In the case of `CCCCCCCC/C=C\CCCCCCCC(=O)OC[C@H](COP(=O)(O)OCC(O)CO)OC(=O)CCCCCCC/C=C\CCCCCCCC` (mixture of isomers) [DOPG, 1,2-dioleoyl-sn-glycero-3-phospho-(1′-rac-glycerol)], in data set [2] (4 mm piece of phospholipid-loaded stenfilcon A lens in 100 μL ATF + 50 ppm recombinant human PLA2G2A, LCMS m/z 281.24), the “Oleic acid peak area in ATF + sPLA2” value is listed as 9958. Moreover, in data set [2] (LCMS m/z 281.24), the “Oleic acid peak area in ATF (without sPLA2)” value was found to be 36. Besides, the “Ratio of OA peak area in ATF with and without sPLA2” value in data set [2] is given as 279. The “Average amount of DOPG/lens” value worked out at 240 µg in data set [3] (DOPG loading concentration 1.0 mg/mL in 50% EtOH/water); 495 µg in data set [3] (DOPG loading concentration 2.5 mg/mL in 50% EtOH/water); 760 µg in data set [3] (DOPG loading concentration 5.0 mg/mL in 50% EtOH/water); 895 µg in data set [3] (DOPG loading concentration 7.5 mg/ml in 50% EtOH/water); 975 µg in data set [3] (DOPG loading concentration 10.0 mg/ml in 50% EtOH/water).
